Data reported in PubChem BioAssay (NCI).
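Compound exposure: 48 hours, 5 concentrations, 96-well plates. At the TGI there is no net growth.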

Legend:
Test in all cases: NCI anticancer screen, dose series, 48 h
786-0 renal = system: 786-0 renal
A549 NSCLC = system: A549 NSCLC
ACHN renal = system: ACHN renal
CAKI-1 renal = system: CAKI-1 renal
CCRF-CEM leukemia = system: CCRF-CEM leukemia
COLO 205 colon = system: COLO 205 colon
DU-145 prostate = system: DU-145 prostate
HCC-2998 colon = system: HCC-2998 colon
HCT-116 colon = system: HCT-116 colon
HCT-15 colon = system: HCT-15 colon
HL-60(TB) leukemia = system: HL-60(TB) leukemia
HOP-62 NSCLC = system: HOP-62 NSCLC
HOP-92 NSCLC = system: HOP-92 NSCLC
HS 578T breast = system: HS 578T breast
HT29 colon = system: HT29 colon
IGROV1 ovarian = system: IGROV1 ovarian
K-562 leukemia = system: K-562 leukemia
KM12 colon = system: KM12 colon
LOX IMVI melanoma = system: LOX IMVI melanoma
M14 melanoma = system: M14 melanoma
MCF7 breast = system: MCF7 breast
MDA-MB-231 breast = system: MDA-MB-231 breast
MDA-MB-435 = system: MDA-MB-435
MDA-N = system: MDA-N
MOLT-4 leukemia = system: MOLT-4 leukemia
NCI-H226 lung = system: NCI-H226 lung
NCI-H23 lung = system: NCI-H23 lung
NCI-H460 lung = system: NCI-H460 lung
NCI-H522 lung = system: NCI-H522 lung
NCI/ADR-RES ovarian = system: NCI/ADR-RES ovarian
OVCAR-3 ovarian = system: OVCAR-3 ovarian
OVCAR-4 ovarian = system: OVCAR-4 ovarian
OVCAR-5 ovarian = system: OVCAR-5 ovarian
OVCAR-8 ovarian = system: OVCAR-8 ovarian
PC-3 prostate = system: PC-3 prostate
RPMI-8226 leukemia = system: RPMI-8226 leukemia
RXF 393 renal = system: RXF 393 renal
SF-268 CNS = system: SF-268 CNS
SF-295 CNS = system: SF-295 CNS
SF-539 CNS = system: SF-539 CNS
SK-MEL-2 melanoma = system: SK-MEL-2 melanoma
SK-MEL-28 melanoma = system: SK-MEL-28 melanoma
SK-MEL-5 melanoma = system: SK-MEL-5 melanoma
SK-OV-3 ovarian = system: SK-OV-3 ovarian
SN12C renal = system: SN12C renal
SNB-19 CNS = system: SNB-19 CNS
SNB-75 CNS = system: SNB-75 CNS
SR leukemia = system: SR leukemia
SW-620 colon = system: SW-620 colon
T-47D breast = system: T-47D breast
TK-10 renal = system: TK-10 renal
U251 CNS = system: U251 CNS
UACC-257 melanoma = system: UACC-257 melanoma
UACC-62 melanoma = system: UACC-62 melanoma
UO-31 renal = system: UO-31 renal
A498 renal = system: A498 renal
BT-549 breast = system: BT-549 breast
EKVX NSCLC = system: EKVX NSCLC

For `CCOC(=O)/C=C/CC(C)(C)CCOC(C)=O`, the TGI (786-0 renal) was > 10 µM, the TGI (A549 NSCLC) was > 10 µM and the TGI (ACHN renal) was > 10 µM. The TGI (CAKI-1 renal) was > 10 µM, the TGI (CCRF-CEM leukemia) was > 10 µM and the TGI (COLO 205 colon) was > 10 µM. For the same compound, the TGI (DU-145 prostate) was > 10 µM, the TGI (HCC-2998 colon) was > 10 µM and the TGI (HCT-116 colon) was > 10 µM. For the same compound, the TGI (HCT-15 colon) was > 10 µM, the TGI (HL-60(TB) leukemia) was > 10 µM and the TGI (HOP-62 NSCLC) was > 10 µM. The TGI (HOP-92 NSCLC) was > 10 µM, the TGI (HS 578T breast) was > 10 µM and the TGI (HT29 colon) was > 10 µM. The TGI (IGROV1 ovarian) was > 10 µM, the TGI (K-562 leukemia) was > 10 µM and the TGI (KM12 colon) was > 10 µM. For the same compound, the TGI (LOX IMVI melanoma) was > 10 µM, the TGI (M14 melanoma) was > 10 µM and the TGI (MCF7 breast) was > 10 µM. The TGI (MDA-MB-231 breast) was > 10 µM, the TGI (MDA-MB-435) was > 10 µM and the TGI (MDA-N) was > 10 µM. The TGI (MOLT-4 leukemia) was > 10 µM, the TGI (NCI-H226 lung) was > 10 µM and the TGI (NCI-H23 lung) was > 10 µM. The TGI (NCI-H460 lung) was > 10 µM, the TGI (NCI-H522 lung) was > 10 µM and the TGI (NCI/ADR-RES ovarian) was > 10 µM. The TGI (OVCAR-3 ovarian) was > 10 µM, the TGI (OVCAR-4 ovarian) was > 10 µM and the TGI (OVCAR-5 ovarian) was > 10 µM. For the same compound, the TGI (OVCAR-8 ovarian) was > 10 µM, the TGI (PC-3 prostate) was > 10 µM and the TGI (RPMI-8226 leukemia) was > 10 µM. The TGI (RXF 393 renal) was > 10 µM, the TGI (SF-268 CNS) was > 10 µM and the TGI (SF-295 CNS) was > 10 µM. The TGI (SF-539 CNS) was > 10 µM, the TGI (SK-MEL-2 melanoma) was > 10 µM and the TGI (SK-MEL-28 melanoma) was > 10 µM. For the same compound, the TGI (SK-MEL-5 melanoma) was > 10 µM, the TGI (SK-OV-3 ovarian) was > 10 µM and the TGI (SN12C renal) was > 10 µM. The TGI (SNB-19 CNS) was > 10 µM, the TGI (SNB-75 CNS) was > 10 µM and the TGI (SR leukemia) was > 10 µM. For the same compound, the TGI (SW-620 colon) was > 10 µM, the TGI (T-47D breast) was > 10 µM and the TGI (TK-10 renal) was > 10 µM. The TGI (U251 CNS) was > 10 µM, the TGI (UACC-257 melanoma) was > 10 µM and the TGI (UACC-62 melanoma) was > 10 µM. For the same compound, the TGI (UO-31 renal) was > 10 µM.
For `COC(=O)CC[N+]1=CCC(c2ccccc2)(c2ccccc2)O1`, the TGI (786-0 renal) was > 100 µM, the TGI (A498 renal) was > 100 µM and the TGI (A549 NSCLC) was > 100 µM. For the same compound, the TGI (ACHN renal) was > 100 µM, the TGI (BT-549 breast) was > 100 µM and the TGI (CAKI-1 renal) was > 100 µM. For the same compound, the TGI (COLO 205 colon) was > 100 µM, the TGI (DU-145 prostate) was > 100 µM and the TGI (EKVX NSCLC) was > 100 µM. The TGI (HCC-2998 colon) was > 100 µM, the TGI (HCT-116 colon) was > 100 µM and the TGI (HCT-15 colon) was > 100 µM. The TGI (HOP-62 NSCLC) was > 100 µM, the TGI (HOP-92 NSCLC) was > 100 µM and the TGI (HS 578T breast) was > 100 µM. The TGI (HT29 colon) was > 100 µM, the TGI (IGROV1 ovarian) was > 100 µM and the TGI (K-562 leukemia) was > 100 µM. The TGI (KM12 colon) was > 100 µM, the TGI (M14 melanoma) was > 100 µM and the TGI (MCF7 breast) was > 100 µM. For the same compound, the TGI (MDA-MB-231 breast) was > 100 µM, the TGI (MDA-MB-435) was > 100 µM and the TGI (MDA-N) was > 100 µM. The TGI (MOLT-4 leukemia) was > 100 µM, the TGI (NCI-H226 lung) was > 100 µM and the TGI (NCI-H23 lung) was > 100 µM. For the same compound, the TGI (NCI-H460 lung) was > 100 µM, the TGI (NCI-H522 lung) was > 100 µM and the TGI (OVCAR-3 ovarian) was > 100 µM. For the same compound, the TGI (OVCAR-4 ovarian) was > 100 µM, the TGI (OVCAR-5 ovarian) was > 100 µM and the TGI (OVCAR-8 ovarian) was > 100 µM. The TGI (PC-3 prostate) was > 100 µM, the TGI (RXF 393 renal) was > 100 µM and the TGI (SF-268 CNS) was > 100 µM. The TGI (SF-295 CNS) was > 100 µM, the TGI (SF-539 CNS) was > 100 µM and the TGI (SK-MEL-2 melanoma) was > 100 µM. The TGI (SK-MEL-28 melanoma) was > 100 µM, the TGI (SK-MEL-5 melanoma) was > 100 µM and the TGI (SK-OV-3 ovarian) was > 100 µM. For the same compound, the TGI (SN12C renal) was > 100 µM, the TGI (SNB-19 CNS) was > 100 µM and the TGI (SW-620 colon) was > 100 µM. The TGI (T-47D breast) was > 100 µM, the TGI (TK-10 renal) was > 100 µM and the TGI (U251 CNS) was > 100 µM. The TGI (UACC-257 melanoma) was > 100 µM, the TGI (UACC-62 melanoma) was > 100 µM and the TGI (UO-31 renal) was > 100 µM.
